In this experiment the target is T1, 53BP1 tandem Tudor domain (TTD) (Homo sapiens, UniProt Q12888).
T1 construct: DEL screens targeting the tandem Tudor domain (TTD) of 53BP1; made in house
T1 sequence (Q12888 1484-1603 limits assumed): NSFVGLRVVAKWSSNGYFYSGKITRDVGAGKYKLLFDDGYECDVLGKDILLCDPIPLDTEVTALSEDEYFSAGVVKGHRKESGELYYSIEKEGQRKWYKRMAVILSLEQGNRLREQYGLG
As to the kind of experiment: 53BP1 TR-FRET displacement assay. Format: binding. The following applies: mean ± SD of at least three replicates. The source says:
In this work, we test the hypothesis that initializing a structure-based generative AI workflow with validated DEL screening data can rapidly identify novel, potent, and more drug-like compounds from an ultra-large virtual library, outperforming traditional hit-picking strategies. To do so, we present a DEL-driven, integrated virtual screening workflow that combines the HIDDEN GEM platform with the multi-billion-compound Enamine REAL Space (Figure 1). Using data from our recently published DEL screens targeting the tandem Tudor domain (TTD) of 53BP1,[8],[16],[27] we biased our generative structure-guided ML model to identify novel, commercially available compounds from the Enamine REAL Space. All purchased and off-DNA synthesized compounds were experimentally tested using a developed time-resolved fluorescence resonance energy transfer (TR-FRET) displacement assay. This workflow provides a rapid, cost-effective strategy for academic labs and small biotech companies to accelerate hit discovery using focused DEL libraries and to expand beyond the screened chemical space, which is particularly important for smaller-sized DELs.
Reagents, protein expression/purification, DEL production and screening, and TR-FRET screening protocols were previously reported.[16],[27] […]
[Compound], µM [Compound], µM [Compound], µM
[Compound], µM [Compound], µM
Figure S2. 53BP1 TR-FRET displacement assay dose-response curves for compounds identified from
HIDDEN GEM. Each data point represents the mean of three replicates (n=3), with error bars indicating standard
deviation. Dose-response curves were fitted using a four-parameter Hill equation. […]
Turning to `CCN1CCN(c2ccccc2NC(=O)c2cc(O)c3ccccc3c2)CC1` [UNC10414641A], the concentration for half-maximal inhibition (IC50) is 58 ± 10 µM.

With `COc1ccc(C(CNC2=NS(=O)(=O)c3ccccc32)N2CCCC2)cc1` (centres unmarked) [UNC10413807A], the IC50 stood at 43 ± 0.44 µM. Then `CN1CCN(c2ccccc2NC(=O)c2cc3ccccc3[nH]2)CC1` [UNC10413788A], with 22 ± 3.6 µM. In the case of `CN1CCC(Nc2ccccc2NC(=O)c2cccc(F)c2)CC1` [UNC10413800A] it was 54 ± 8.5 µM. The compound `Cc1ccc(C(CNC2=NS(=O)(=O)c3ccccc32)N2CCCC2)cc1` (centres unmarked) [UNC10414645A] yielded an IC50 of 34 ± 3 µM.

(Values after doi:10.1101/2025.09.30.679600, “Expansion of DNA-Encoded Library Hits Using Generative Chemistry and Ultra-Large Compound Catalogs” (bioRxiv, 2025).)
